Assay results taken from publication PMC6437697 (Journal of Medicinal Chemistry, 2019).

Experiments:
MEK6 = molecular target: T1, MEK6 (Homo sapiens, UniProt P52564); assay: KINOMEscan; assay type: binding; details: read-out: % control activity remaining
T1 construct: purchased Eurofins DiscoverX KINOMEscan

in vitro = details: human
IRE1α = IRE1α (Homo sapiens, UniProt O75460); assay: biochemical; assay type: binding
CDK4 = molecular target: T2, CDK4 (Homo sapiens, UniProt P11802); assay: KINOMEscan; assay type: binding; details: read-out: % control activity remaining
T2 construct: purchased Eurofins DiscoverX KINOMEscan

FLT3(D835V) = molecular target: T3, FLT3(D835V) (Homo sapiens, UniProt P36888, D835V); assay: KINOMEscan; assay type: binding; details: read-out: % control activity remaining
T3 construct: purchased Eurofins DiscoverX KINOMEscan

FLT3(ITD,D835V) = assay: KINOMEscan; assay type: binding, human; details: 1000 nM
FLT3(ITD,D835Y) = assay: KINOMEscan; assay type: binding, human; details: 1000 nM
GRK3 = molecular target: T4, GRK3 (Homo sapiens, UniProt P35626); assay: KINOMEscan; assay type: binding; details: read-out: % control activity remaining
T4 construct: purchased Eurofins DiscoverX KINOMEscan

TSSK3 = molecular target: T5, TSSK3 (Homo sapiens, UniProt Q96PN8); assay: KINOMEscan; assay type: binding; details: read-out: % control activity remaining
T5 construct: purchased Eurofins DiscoverX KINOMEscan

VRK2 = molecular target: T6, VRK2 (Homo sapiens, UniProt Q86Y07); assay: KINOMEscan; assay type: binding; details: read-out: % control activity remaining
T6 construct: purchased Eurofins DiscoverX KINOMEscan

VPS34 = molecular target: T7, VPS34 (Homo sapiens, UniProt Q8NEB9); assay: KINOMEscan; assay type: binding; details: read-out: % control activity remaining
T7 construct: purchased Eurofins DiscoverX KINOMEscan

WNK2 = molecular target: T8, WNK2 (Homo sapiens, UniProt Q9Y3S1); assay: KINOMEscan; assay type: binding; details: read-out: % control activity remaining
T8 construct: purchased Eurofins DiscoverX KINOMEscan

[1] = Measured lipophilicity Log D7.4; details: pH 7.4

T8 sequence (Q9Y3S1 whole entry): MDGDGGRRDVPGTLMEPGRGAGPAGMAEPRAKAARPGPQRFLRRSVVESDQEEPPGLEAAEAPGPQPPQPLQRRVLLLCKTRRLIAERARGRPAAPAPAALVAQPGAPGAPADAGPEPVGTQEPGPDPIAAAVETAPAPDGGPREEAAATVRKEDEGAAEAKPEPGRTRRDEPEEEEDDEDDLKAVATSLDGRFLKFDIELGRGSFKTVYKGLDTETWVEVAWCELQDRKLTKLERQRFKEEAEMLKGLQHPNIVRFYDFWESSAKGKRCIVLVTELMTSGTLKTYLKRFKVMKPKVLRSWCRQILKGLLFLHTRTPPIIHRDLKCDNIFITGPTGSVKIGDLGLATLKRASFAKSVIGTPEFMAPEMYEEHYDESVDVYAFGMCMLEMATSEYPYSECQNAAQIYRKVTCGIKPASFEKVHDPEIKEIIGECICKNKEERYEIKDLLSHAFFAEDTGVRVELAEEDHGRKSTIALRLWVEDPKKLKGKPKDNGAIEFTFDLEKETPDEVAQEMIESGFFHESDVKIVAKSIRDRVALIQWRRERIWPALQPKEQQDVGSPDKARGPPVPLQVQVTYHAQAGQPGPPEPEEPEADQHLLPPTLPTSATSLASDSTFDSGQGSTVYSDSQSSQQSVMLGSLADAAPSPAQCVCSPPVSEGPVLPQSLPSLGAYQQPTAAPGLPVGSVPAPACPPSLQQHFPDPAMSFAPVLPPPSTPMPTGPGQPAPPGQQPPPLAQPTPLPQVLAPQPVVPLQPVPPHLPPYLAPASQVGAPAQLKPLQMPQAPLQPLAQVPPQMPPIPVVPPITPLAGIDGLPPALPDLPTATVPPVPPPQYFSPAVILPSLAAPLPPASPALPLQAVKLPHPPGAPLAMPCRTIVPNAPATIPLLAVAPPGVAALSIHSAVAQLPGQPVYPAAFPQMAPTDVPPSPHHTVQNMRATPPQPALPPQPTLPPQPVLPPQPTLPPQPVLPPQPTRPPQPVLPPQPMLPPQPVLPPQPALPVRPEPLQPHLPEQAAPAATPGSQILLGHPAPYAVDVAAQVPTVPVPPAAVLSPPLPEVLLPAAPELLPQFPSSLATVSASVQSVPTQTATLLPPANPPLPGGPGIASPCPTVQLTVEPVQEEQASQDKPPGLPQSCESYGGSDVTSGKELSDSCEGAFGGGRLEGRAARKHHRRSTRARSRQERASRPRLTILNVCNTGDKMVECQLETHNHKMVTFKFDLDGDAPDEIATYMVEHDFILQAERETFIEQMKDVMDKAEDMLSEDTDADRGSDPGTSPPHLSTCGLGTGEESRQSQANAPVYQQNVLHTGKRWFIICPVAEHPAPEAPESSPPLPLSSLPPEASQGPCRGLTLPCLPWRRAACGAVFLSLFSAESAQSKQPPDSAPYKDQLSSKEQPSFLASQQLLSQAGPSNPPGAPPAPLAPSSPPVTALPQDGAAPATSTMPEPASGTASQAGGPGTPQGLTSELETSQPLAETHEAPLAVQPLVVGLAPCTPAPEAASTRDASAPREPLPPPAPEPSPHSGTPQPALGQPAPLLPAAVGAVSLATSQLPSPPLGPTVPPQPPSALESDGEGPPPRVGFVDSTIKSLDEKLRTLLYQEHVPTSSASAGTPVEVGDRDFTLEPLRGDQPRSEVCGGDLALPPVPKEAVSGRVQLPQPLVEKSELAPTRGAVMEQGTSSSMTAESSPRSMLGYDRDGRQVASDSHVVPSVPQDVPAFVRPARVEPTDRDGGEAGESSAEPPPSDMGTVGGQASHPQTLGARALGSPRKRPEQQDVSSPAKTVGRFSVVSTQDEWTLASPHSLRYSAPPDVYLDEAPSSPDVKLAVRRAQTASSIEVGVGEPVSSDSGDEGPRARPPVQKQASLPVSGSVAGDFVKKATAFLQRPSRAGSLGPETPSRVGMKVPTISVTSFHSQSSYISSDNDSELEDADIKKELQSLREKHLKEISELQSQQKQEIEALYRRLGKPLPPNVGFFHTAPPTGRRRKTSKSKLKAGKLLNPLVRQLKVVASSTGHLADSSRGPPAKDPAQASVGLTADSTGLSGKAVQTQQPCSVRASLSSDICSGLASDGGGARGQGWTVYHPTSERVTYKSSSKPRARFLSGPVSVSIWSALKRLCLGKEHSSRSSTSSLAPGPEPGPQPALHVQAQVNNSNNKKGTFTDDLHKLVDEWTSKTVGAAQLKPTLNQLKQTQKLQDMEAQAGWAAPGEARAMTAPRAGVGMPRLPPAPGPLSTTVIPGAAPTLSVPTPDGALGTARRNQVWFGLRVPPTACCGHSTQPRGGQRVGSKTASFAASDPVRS
T2 sequence (P11802 whole entry): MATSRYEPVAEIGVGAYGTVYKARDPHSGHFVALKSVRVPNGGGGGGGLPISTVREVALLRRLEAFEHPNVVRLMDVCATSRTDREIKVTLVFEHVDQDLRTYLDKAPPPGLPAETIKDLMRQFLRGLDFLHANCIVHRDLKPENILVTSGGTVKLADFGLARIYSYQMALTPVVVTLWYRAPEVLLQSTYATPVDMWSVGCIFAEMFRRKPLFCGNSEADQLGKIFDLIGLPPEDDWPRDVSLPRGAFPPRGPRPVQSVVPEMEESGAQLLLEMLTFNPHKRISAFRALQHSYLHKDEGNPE
T4 sequence (P35626 whole entry): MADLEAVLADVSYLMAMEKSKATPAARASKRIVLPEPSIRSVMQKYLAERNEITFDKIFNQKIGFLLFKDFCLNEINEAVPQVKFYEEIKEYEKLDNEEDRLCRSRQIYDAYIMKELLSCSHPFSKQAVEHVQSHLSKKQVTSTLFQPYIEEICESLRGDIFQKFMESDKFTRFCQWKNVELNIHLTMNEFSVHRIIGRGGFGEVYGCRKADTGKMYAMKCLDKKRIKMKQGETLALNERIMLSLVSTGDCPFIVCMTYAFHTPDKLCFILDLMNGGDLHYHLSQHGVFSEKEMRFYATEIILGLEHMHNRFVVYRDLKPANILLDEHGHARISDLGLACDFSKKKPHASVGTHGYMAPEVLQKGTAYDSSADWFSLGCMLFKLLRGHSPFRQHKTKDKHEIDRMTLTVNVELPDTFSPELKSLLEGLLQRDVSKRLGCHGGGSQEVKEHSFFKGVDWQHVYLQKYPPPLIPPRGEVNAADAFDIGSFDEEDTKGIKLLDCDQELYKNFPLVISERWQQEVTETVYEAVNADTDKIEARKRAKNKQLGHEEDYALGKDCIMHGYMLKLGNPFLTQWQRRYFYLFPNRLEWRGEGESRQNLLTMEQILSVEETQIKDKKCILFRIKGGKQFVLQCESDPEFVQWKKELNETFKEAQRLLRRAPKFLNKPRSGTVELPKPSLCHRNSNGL
T1 sequence (P52564 whole entry): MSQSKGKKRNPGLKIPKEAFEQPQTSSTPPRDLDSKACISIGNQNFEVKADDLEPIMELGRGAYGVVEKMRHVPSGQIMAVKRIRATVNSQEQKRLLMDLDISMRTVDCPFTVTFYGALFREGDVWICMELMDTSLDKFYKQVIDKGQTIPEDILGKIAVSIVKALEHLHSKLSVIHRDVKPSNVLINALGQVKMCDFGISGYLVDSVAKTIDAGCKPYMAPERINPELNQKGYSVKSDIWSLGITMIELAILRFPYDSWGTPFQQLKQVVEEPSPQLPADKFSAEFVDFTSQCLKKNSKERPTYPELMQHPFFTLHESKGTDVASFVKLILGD
T7 sequence (Q8NEB9 whole entry): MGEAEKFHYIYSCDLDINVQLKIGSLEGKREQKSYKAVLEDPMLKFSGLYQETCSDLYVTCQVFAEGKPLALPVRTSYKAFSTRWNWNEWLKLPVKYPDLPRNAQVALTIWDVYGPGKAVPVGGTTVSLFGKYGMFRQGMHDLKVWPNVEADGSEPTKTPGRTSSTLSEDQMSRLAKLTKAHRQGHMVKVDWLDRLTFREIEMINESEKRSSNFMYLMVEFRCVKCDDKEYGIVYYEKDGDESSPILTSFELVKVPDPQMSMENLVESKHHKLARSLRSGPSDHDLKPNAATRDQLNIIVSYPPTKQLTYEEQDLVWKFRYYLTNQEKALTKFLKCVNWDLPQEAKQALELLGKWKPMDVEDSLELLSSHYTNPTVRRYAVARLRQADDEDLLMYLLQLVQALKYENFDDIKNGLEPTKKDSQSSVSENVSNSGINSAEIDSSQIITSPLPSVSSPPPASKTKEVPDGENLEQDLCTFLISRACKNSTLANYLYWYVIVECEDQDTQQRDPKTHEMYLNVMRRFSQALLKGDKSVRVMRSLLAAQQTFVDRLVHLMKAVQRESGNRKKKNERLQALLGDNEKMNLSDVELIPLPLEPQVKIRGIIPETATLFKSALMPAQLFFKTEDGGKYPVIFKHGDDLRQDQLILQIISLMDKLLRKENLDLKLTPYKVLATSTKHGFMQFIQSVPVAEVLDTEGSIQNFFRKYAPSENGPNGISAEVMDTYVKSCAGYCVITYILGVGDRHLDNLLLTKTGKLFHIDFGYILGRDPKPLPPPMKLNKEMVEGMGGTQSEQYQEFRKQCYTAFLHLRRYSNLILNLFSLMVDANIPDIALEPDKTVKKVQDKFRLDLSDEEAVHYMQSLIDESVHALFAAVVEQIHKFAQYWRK
T5 sequence (Q96PN8 whole entry): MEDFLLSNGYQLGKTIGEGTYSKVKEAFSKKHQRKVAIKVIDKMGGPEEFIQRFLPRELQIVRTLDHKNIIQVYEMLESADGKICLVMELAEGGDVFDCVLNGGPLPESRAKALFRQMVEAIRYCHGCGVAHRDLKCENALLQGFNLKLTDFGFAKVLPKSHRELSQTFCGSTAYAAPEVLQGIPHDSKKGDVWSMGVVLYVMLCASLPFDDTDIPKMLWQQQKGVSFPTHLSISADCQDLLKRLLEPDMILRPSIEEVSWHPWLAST

Structure (SMILES) | remaining binding at 1 µM (MEK6) | EC50 (in vitro) | IC50 (IRE1α) | remaining binding at 1 µM (CDK4) | remaining binding at 1 µM (FLT3(D835V)) | % control activity remaining (FLT3(ITD,D835V)) | % control activity remaining (FLT3(ITD,D835Y)) | remaining binding at 1 µM (GRK3) | remaining binding at 1 µM (TSSK3) | remaining binding at 1 µM (VRK2) | remaining binding at 1 µM (VPS34) | remaining binding at 1 µM (WNK2) | logD [1]
Clc1cc(NCC2CC2)c2ncc(-c3ccc4[nH]ncc4c3)n2n1 [compound 2, 6-Chloro-N-(cyclopropylmethyl)-3-(1H-indazol-5-yl)imidazo[1,2-b]pyridazin-8-amine] | 98% | > 49 µM |  |  |  |  |  |  |  |  |  |  | 
O=C(CN1CCOCC1)N[C@H]1CC[C@H](Nc2cc(Cl)nn3c(-c4ccc5[nH]ncc5c4)cnc23)CC1 [compound 26] | 93% | > 49 µM | 0.039 µM | 100% | 0% | 0.7% | 25% | 74% | 100% | 98% | 94% | 34% | 1.8
CN1CCC(CNc2cc(Cl)nn3c(-c4cc5nc(Nc6ccccc6)[nH]c5cc4F)cnc23)CC1 [compound 31, 6-Chloro-3-(6-fluoro-2-(phenylamino)-1H-benzo[d]imidazol-5-yl)-N-((1-methylpiperidin-4-yl)methyl)imidazo[1,2-b]pyridazin-8-amine] |  |  |  | 100% | 69% | 76% | 77% | 91% | 91% | 82% | 97% | 100% | 3.7
